From BindingDB's records for doi:10.1016/j.bmcl.2015.04.045 (Chungbuk National University, 2015)

Target: T1, Pancreatic triacylglycerol lipase (Sus scrofa, UniProt P00591)
T1 sequence (P00591 whole entry): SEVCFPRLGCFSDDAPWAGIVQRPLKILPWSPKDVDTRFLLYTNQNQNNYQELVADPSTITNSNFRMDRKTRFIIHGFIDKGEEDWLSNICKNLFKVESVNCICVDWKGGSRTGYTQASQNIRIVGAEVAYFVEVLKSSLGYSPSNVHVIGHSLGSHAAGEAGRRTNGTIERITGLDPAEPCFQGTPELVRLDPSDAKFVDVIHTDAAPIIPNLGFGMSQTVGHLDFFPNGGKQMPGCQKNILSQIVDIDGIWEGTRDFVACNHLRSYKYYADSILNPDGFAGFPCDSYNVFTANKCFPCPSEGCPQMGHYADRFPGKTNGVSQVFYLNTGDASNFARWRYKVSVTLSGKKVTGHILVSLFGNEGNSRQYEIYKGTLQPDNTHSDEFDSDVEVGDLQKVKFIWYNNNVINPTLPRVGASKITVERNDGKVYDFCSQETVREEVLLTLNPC
Assay: Inhibition of porcine pancreatic lipase using p-nitrophenylbutyrate as substrate assessed as formation of p-nitrophenol preincubated for 15 mins followed by substrate addition measured after 15 mins

## O=c1cc(O)cc2oc(-c3ccc(O)cc3)c(O[C@@H]3O[C@H](CO)[C@@H](O)[C@H](O)[C@H]3O)c(O)c1-2 [3,4',5,7-Tetrahydroxyflavone-3-glucoside]
  IC50: > 70 µM

## O=c1cc(O)cc2oc(-c3ccc(O)c(O)c3)c(O[C@@H]3O[C@H](CO)[C@@H](O)[C@H](O)[C@H]3O)c(O)c1-2 [Quercetin 3-O-beta-D-glucoside]
  IC50: > 70 µM
